Experimental data published in paper PMC2649378 (European Journal of Pharmacology, 2008).
Where “and” joins values, the source holds several entries; their conditions need not be identical. Equal entries are not always repeated. Where two headings read alike, the source gives them in different places.

What was measured:
5-HT3AB receptors [1] = molecular target: T1, 5-HT3AB receptors (Mus musculus, UniProt P23979+Q9JHJ5); experiment: [3H]granisetron binding to membranes of transfected HEK 293 cells, 5-HT3AB receptors
T1 construct: expressed in transfected cells; host or cells: Xenopus laevis oocytes injected with cRNA (pGEMHE)
T1 sequence (P23979 24-489): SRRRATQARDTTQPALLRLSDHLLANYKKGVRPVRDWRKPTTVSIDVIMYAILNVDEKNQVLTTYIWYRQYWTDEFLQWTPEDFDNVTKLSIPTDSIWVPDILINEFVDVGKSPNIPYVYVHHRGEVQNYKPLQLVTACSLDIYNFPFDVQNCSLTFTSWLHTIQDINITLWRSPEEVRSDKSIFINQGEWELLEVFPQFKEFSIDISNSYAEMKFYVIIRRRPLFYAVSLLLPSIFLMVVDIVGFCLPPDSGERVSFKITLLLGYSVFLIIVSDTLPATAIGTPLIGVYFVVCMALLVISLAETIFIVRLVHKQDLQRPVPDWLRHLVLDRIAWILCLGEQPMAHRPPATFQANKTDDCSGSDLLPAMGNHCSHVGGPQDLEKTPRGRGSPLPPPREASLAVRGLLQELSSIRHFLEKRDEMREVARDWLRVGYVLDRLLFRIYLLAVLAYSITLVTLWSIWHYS
T1 sequence (Q9JHJ5 22-437): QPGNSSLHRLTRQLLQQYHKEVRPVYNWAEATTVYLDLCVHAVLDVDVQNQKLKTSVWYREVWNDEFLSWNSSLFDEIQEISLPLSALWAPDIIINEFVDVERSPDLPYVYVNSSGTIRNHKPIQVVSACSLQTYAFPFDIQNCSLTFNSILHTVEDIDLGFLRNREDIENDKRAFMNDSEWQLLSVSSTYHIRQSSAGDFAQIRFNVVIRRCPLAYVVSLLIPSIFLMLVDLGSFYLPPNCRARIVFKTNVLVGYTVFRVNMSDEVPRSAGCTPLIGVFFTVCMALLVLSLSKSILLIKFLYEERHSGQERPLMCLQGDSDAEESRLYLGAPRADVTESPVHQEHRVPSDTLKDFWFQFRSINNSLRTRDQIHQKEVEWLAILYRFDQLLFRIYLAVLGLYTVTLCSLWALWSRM
Experimental: (§1) Mouse 5-HT3A (accession number: AY605711) or 5-HT3B (accession number: NM_020274, kindly provided by Ewen Kirkness) subunit cDNAs were cloned into pGEMHE for oocyte expression ([Liman et al., 1992]). cRNA was in vitro transcribed from linearised (NheI) plasmid cDNA template using the mMessage mMachine T7 kit (Ambion, Austin, Texas, USA). Stage V and VI oocytes were injected with 50 ng–100 ng cRNA, and recorded from 1–4 days post-injection. For expression in HEK 293 cells, 5-HT3 receptor subunit cDNAs were cloned into pcDNA3.1 (Invitrogen Ltd., Paisley, UK.). Mutagenesis reactions were performed using the Kunkel method and confirmed by DNA sequencing. Cells were transfected using calcium phosphate precipitation at 80–90% confluency ([Jordan et al., 1996]). Following transfection cells were incubated for 3–4 days before assay.
(§2) This was undertaken in HEK 293 cells which provide an established and robust method of studying ligand binding. Methods were as previously described ([Lummis et al., 1993]), with minor modifications. Briefly, transfected HEK 293 cells were washed twice with phosphate buffered saline (PBS) at room temperature and scraped into 1 ml of ice-cold HEPES buffer (10 mM, pH 7.4) containing the following proteinase inhibitors (PI): 1 mM EDTA, 50 μg ml^− 1 soybean trypsin inhibitor, 50 μg/ml bacitracin and 0.1 mM phenylmethylsulphonyl fluoride. […] Competition binding was performed using ligand concentrations from 0.1 μM–10 mM. Reactions were incubated for at least 1 h at 4 °C and terminated by vacuum filtration using a Brandel cell harvester onto GF/B filters pre-soaked in 0.3% polyethyleneimine. Radioactivity was determined by scintillation counting using a Beckman LS6000SC (Fullerton, California, USA). Competition binding data were analyzed by iterative curve fitting (GraphPad Prism v3.02, GraphPad Software, San Diego, California, USA), according to the equation: y=Bmin+Bmax−Bmin/1+10^[L]−logIC50 where Bmin is the lowest total binding, Bmax is the maximum specific binding at equilibrium, [L] is the concentration of competing ligand and IC50 is the concentration of competing ligand that blocks half of the specific bound radioligand. Ki values were estimated from IC50 values using the Cheng–Prusoff equation: Ki=IC50/1+[L]/Kd
(§3) where Ki is the equilibrium dissociation constant for binding of the unlabeled antagonist, [L] is the concentration of radioligand and Kd is the equilibrium dissociation constant of the radioligand.

5-HT3A receptors [2] = molecular target: T2, 5-HT3A receptors (Mus musculus, UniProt P23979); experiment: [3H]granisetron binding to membranes of transfected HEK 293 cells, 5-HT3A receptors; details: for Ki relative to the Ki for 5-HT: 5-HT3A receptors, fold greater than 5-HT; for Ki: WT 5-HT3A receptors, HEK 293 membranes, 0.5 nM [3H]granisetron, 4 °C
T2 construct: expressed in transfected cells; host or cells: Xenopus laevis oocytes injected with cRNA (pGEMHE)
T2 sequence (P23979 24-489): T1 sequence (P23979 24-489)
Experimental: as §1, §2, §3

5-HT3A receptors [3] = molecular target: T2, 5-HT3A receptors; experiment: Agonist-induced currents in Xenopus oocytes expressing 5-HT3A receptors (OpusXpress electrophysiology); assay type: cell-based; details: for agonist character: 5-HT3A receptors; for Relative efficacy Rmax = Imax drug / Imax 5-HT: maximal concentration; for EC50: holding potential -60 mV; for EC50 relative to Ki: EC50 fold higher than Ki; for Rmax, approximate summary value: discussion, stated for 5-HT3 receptors (5-HT3A and 5-HT3AB) without distinction
Experimental: (§4) Harvested stage V–VI Xenopus oocytes were washed in six changes of ND96 (96 mM NaCl, 2 mM KCl, 1 mM MgCl2, 1.8 mM CaCl2, 5 mM HEPES, pH 7.5), de-folliculated in 1.5 mg ml^− 1 collagenase Type 1A for approximately 2 h. Enzyme treatment was terminated by washing in six changes of ND96 and oocytes were stored in ND96 containing 2.5 mM sodium pyruvate, […] and 0.7 mM theophylline.
as §1
(§5) Agonist-induced currents were recorded at 22–25 °C from individual oocytes using the OpusXpress system (Molecular Devices Axon Instruments, Union City, CA). […] The holding potential was − 60 mV.

5-HT3AB receptors [4] = molecular target: T1, 5-HT3AB receptors; experiment: Agonist-induced currents in Xenopus oocytes expressing 5-HT3AB receptors (OpusXpress electrophysiology); assay type: cell-based; details: for agonist character: 5-HT3AB receptors; for nH (Hill slope) / EC50 / Relative efficacy Rmax = Imax drug / Imax 5-HT: 5-HT3AB receptors in Xenopus oocytes; for EC50: holding potential -60 mV; for Relative efficacy Rmax = Imax drug / Imax 5-HT: maximal concentration
Experimental: as §4, §1, §5

5-HT3A receptors [5] = molecular target: T2, 5-HT3A receptors; details: discussion; compound not tested in this paper; no reference given; cited from earlier work
[6] = 5-HT3A receptors in Xenopus oocytes
[7] = EC50, 5-HT3A receptors in Xenopus oocytes
[8] = Ki, displacement of [3H]granisetron binding
[9] = 5-HT3AB receptors, HEK 293 membranes, 0.5 nM [3H]granisetron, 4 °C, read-out: Ki, displacement of [3H]granisetron binding
[10] = read-out: Ki, displacement of [3H]granisetron binding

## Cc1ccc2[nH]cc(CCN)c2c1 [5-MeT, 5-methyltryptamine]
5-HT3AB receptors [1]
  Ki: 7.7 ± 1.1 µM
5-HT3A receptors [2]
  Ki relative to the Ki for 5-HT: ~100 fold
5-HT3A receptors [3]
  agonist character: very weak partial agonist
  EC50 relative to Ki: less than 5 fold
5-HT3A receptors [3]; [6]
  Relative efficacy Rmax = Imax drug / Imax 5-HT: 0.0023
5-HT3A receptors [3]; [7]
  EC50: 60 ± 3 µM

## NCCc1c[nH]c2ccc(Cl)cc12 [5-ClT, 5-chlorotryptamine]
5-HT3AB receptors [1]
  Ki: 3.1 ± 1.1 µM
5-HT3A receptors [2]
  Ki relative to the Ki for 5-HT: ~10 fold
5-HT3A receptors [2]; [8]
  Ki: 2.7 ± 0.7 µM
5-HT3A receptors [3]
  agonist character: very weak partial agonist
  EC50 relative to Ki: less than 5 fold
5-HT3A receptors [3]; [6]
  Relative efficacy Rmax = Imax drug / Imax 5-HT: 0.0037
5-HT3A receptors [3]; [7]
  EC50: 8.1 µM and 8 µM

## N=C(N)NC(=N)Nc1cccc(Cl)c1 [mCPBG, m-chlorophenylbiguanide]
5-HT3AB receptors [1]; [9]
  Ki: 0.012 ± 0.004 µM
5-HT3A receptors [2]; [10]
  Ki: 0.01 ± 0.003 µM
5-HT3AB receptors [4]
  agonist character: full agonist
  nH (Hill slope): 1.6 and 1.6 ± 0.4
  Relative efficacy Rmax = Imax drug / Imax 5-HT: 0.92 ± 0.09
5-HT3AB receptors [4]; read-out: EC50
  EC50: 1.1 µM
5-HT3A receptors [3]
  agonist character: partial agonist
  Rmax, approximate summary value: ~0.8
5-HT3A receptors [3]; [6]
  nH (Hill slope): 2.3 and 2.3 ± 0.4
  Relative efficacy Rmax = Imax drug / Imax 5-HT: 0.74 ± 0.07
5-HT3A receptors [3]; 5-HT3A receptors in Xenopus oocytes, read-out: EC50
  EC50: 0.5 µM

## Cc1[nH]c2ccc(O)cc2c1CCN [2-methyl-5-HT]
5-HT3A receptors [5]
  Rmax, approximate value: ~0.2

## NCCc1c[nH]c2ccc(O)cc12 [5-HT]
5-HT3AB receptors [4]
  nH (Hill slope): 1.4 and 1.4 ± 0.4

## NCCc1c[nH]c2ccccc12 [tryptamine]
5-HT3AB receptors [1]; [9]
  Ki: 15.5 ± 3.5 µM
5-HT3A receptors [2]
  Ki relative to the Ki for 5-HT: ~50 fold
5-HT3A receptors [2]; [10]
  Ki: 4.8 ± 0.9 µM
5-HT3AB receptors [4]
  agonist character: partial agonist
  nH (Hill slope): 1.8 and 1.8 ± 0.5
  Relative efficacy Rmax = Imax drug / Imax 5-HT: 0.14 ± 0.02
5-HT3AB receptors [4]; mean ± SEM, read-out: pEC50 (converted)
  EC50: 60.3 µM
5-HT3AB receptors [4]; read-out: EC50
  EC50: 61 µM
5-HT3A receptors [3]
  agonist character: partial agonist
  Rmax, approximate summary value: ~0.15
5-HT3A receptors [3]; [6]
  nH (Hill slope): 2.5 and 2.5 ± 0.5
  Relative efficacy Rmax = Imax drug / Imax 5-HT: 0.15
5-HT3A receptors [3]; 5-HT3A receptors in Xenopus oocytes, mean ± SEM, read-out: pEC50 (converted)
  EC50: 123 µM
5-HT3A receptors [3]; 5-HT3A receptors in Xenopus oocytes, listed as Tryptamine
  Relative efficacy Rmax = Imax drug / Imax 5-HT: 0.15 ± 0.06
5-HT3A receptors [3]; EC50 fold higher than 5-HT and 5-FT, both receptor types
  EC50 relative to both 5-HT and 5-FT: 10–100 fold
5-HT3A receptors [3]; fold less potent / EC50 higher than 5-HT, stated for 5-HT3A and 5-HT3AB receptors together
  potency (EC50) relative to 5-HT: ~100 fold

## COc1ccc2[nH]cc(CCN)c2c1 [5-MeOT, 5-methoxytryptamine]
5-HT3AB receptors [1]
  Ki: 21.7 ± 2.1 µM
5-HT3A receptors [2]
  Ki relative to the Ki for 5-HT: ~300 fold
5-HT3A receptors [2]; [8]
  Ki: 34.9 ± 3 µM
5-HT3A receptors [3]; concentrations up to 10 mM, examined in 5-HT3A receptors
  activation of 5-HT3 receptors: unable to activate
